Consider six molecules from patent publication US20130309187A1, “SKIN-WHITENING AGENT CONTAINING 3-HYDROXY-2-PYRONE” (NICHIREI BIOSCIENCES INC., priority 2011, published 2013).

Molecules are shown by their SMILES.

Data set [1] deals with tyrosinase (Sigma). Nature of the data set: Inhibition rate of tyrosinase activity (L-DOPA substrate, absorbance 475 nm). In kind it is biochemical. Here is the method:
In the experiment, 0.2 ml of an enzyme solution containing 72 units/ml tyrosinase (Sigma) was mixed with 1.0 ml of a substrate mixture (i.e., a 2:2:1 mixture of a 6 mM L-DOPA solution, the test composition with the adjusted concentration (hereafter referred to as the “sample”), and phosphate buffer), the absorbance was measured at 475 nm at 37° C. at 0 min and […], and the inhibition rate of tyrosinase activity was determined using the equation shown below.
Inhibition rate of tyrosinase activity (%)=(1−(the difference in the absorbance of the sample between […] and 3 min)/(the difference in the absorbance of the blank between 0 min and 3 min)×100
In the experiment, 0.2 ml of an enzyme solution containing 72 units/ml tyrosinase (Sigma) was mixed with 1.0 ml of a substrate mixture (i.e., a 2:2:1 mixture of a 6 mM L-DOPA solution, the sample with the adjusted concentration, and phosphate buffer (pH 6.8)), the absorbance was measured at 475 nm at 37° C. at 0 min and 3 min, and the inhibition rate of tyrosinase activity was determined using the equation shown below.
Inhibition rate of tyrosinase activity (%)=(1−(the difference in the absorbance of the sample between 0 min and 3 min)/(the difference in the absorbance of the blank between 0 min and 3 min)×100
In the experiment, 0.2 ml of an enzyme solution containing 72 units/ml tyrosinase (Sigma) was mixed with 1.0 ml of a substrate mixture (i.e., a 2:2:1 mixture of a 6 mM L-DOPA solution, the sample with the adjusted concentration, and phosphate buffer), the absorbance was measured at 475 nm at 37° C. at 0 min and 3 min, and the inhibition rate of tyrosinase activity was determined using the equation shown below.

For data set [2], the system named is B16 mouse melanoma 4A5 cells. Nature of the data set: Inhibition of melanin production in B16 mouse melanoma 4A5 cells. It is filed as cell-based. To be noted: for Melanin level: 5 days culture with sample, relative to control designated as 100. Here is the method:
(§1) B16 mouse melanoma 4A5 cells (RIKEN) were seeded at 5.0 x 10^4 cells/well on a 6-well plate and cultured in Dulbecco's modified Eagle's medium (DMEM) supplemented with 10% FBS at 37° C. in the presence of 5% CO2. The medium was exchanged with fresh medium supplemented with the sample on the following day, and culture was conducted in the medium supplemented with the sample for an additional 5 days. The medium was removed 6 days after the initiation of culture, and the cells were collected by using trypsin. The collected cells were suspended in 1N sodium hydroxide, and melanin was extracted via heating. The absorbance of the melanin extract was measured at 405 nm, and the melanin level was quantified with the calibration curve of the melanin reagent (Sigma). In addition, the amount of proteins in the collected cells was determined using the DC Protein Assay KIT (BIO-RAD) and used as the indicator for the viable cell count.
as §1, with “5.0×10^4” for “5.0 x 10^4”

Data set [3] relates to B16 mouse melanoma 4A5 cells. Put plainly: Viable cell count (protein amount, DC Protein Assay) in B16 mouse melanoma 4A5 cells. Here is the method:
as §1
as §1, with “5.0×10^4” for “5.0 x 10^4”

Data set [4] concerns tyrosinase. Put plainly: Inhibitory effects on tyrosinase activity (L-tyrosine substrate, time course of absorbance at 475 nm, method of Patent Document 1). It is filed as biochemical. As to conditions: Experiment 4, FIG. 3, aqueous solution of 1% sample, 0-15 min. Here is the method: The experiment was carried out in the same manner as that described in Patent Document 1. An aqueous solution of 1% 3H2P, an aqueous solution of 1% coumalin (Tokyo Chemical Industry Co., Ltd.), an aqueous solution of 1% coumalic acid (Tokyo Chemical Industry Co., Ltd.), and an aqueous solution of 0.01% kojic acid were prepared. Subsequently, 1.45 ml of a substrate-sample mixture comprising an aqueous solution of L-tyrosine (0.3 mg/ml), a sample solution of 3H2P, etc., and McIlvaine buffer (pH 6.8) was introduced into a test tube, 0.05 ml of a tyrosinase solution (1 mg/ml) was added thereto, the resultant was mounted on a spectrophotometer capable of maintaining a constant temperature of 37° C., and the absorbance was measured at 475 nm with the elapse of time (once every minute between 0 min and 15 min).

Setting [5] is: Experiment 6, FIG. 5, kojic acid, 3H2P and 3H4P compared.
Where [6] appears, read: Experiment 7, FIG. 6, 3H4P, 3H2P and kojic acid compared.
Where [7] appears, read: Experiment 3, 1 μg/ml, relative to control designated as 100.
Setting [8] is: Experiment 3, 5 μg/ml, relative to control designated as 100.
Where [9] appears, read: Experiment 3, 10 μg/ml, relative to control designated as 100.

For the molecule `O=c1occcc1O` [3H2P, 3-hydroxy-2-pyrone], the “inhibitory effects on tyrosinase activity” value in data set [1] (Experiment 2, FIG. 1, compared with kojic acid and ascorbic acid) is “equivalent to those of ascorbic acid, although such effects are somewhat weaker than those of kojic acid”; in data set [1] (Experiment 5, FIG. 4, final concentrations 0.3%, 0.1% and 0.033%) it was “apparently stronger than those of coumalin and coumalic acid”; in data set [1] (setting [5]), “equivalent to those of 3H4P”; in data set [4] it was “significantly stronger than those of coumalin and coumalic acid”. For the same molecule, the “inhibitory effects on melanin production” value in data set [2] (Experiment 3, FIG. 2, compared with arbutin and kojic acid) is “stronger than those of kojic acid and equivalent to those of arbutin”; in data set [2] (setting [6]), “stronger inhibitory effects on melanin production than such γ-pyrone compounds”. Besides, the Melanin level in data set [2] (Experiment 3, 1 μg/ml) is 71.7; in data set [2] (Experiment 3, 5 μg/ml), 34.3; in data set [2] (Experiment 3, 10 μg/ml), 20.7; in data set [2] (Experiment 7, 1 μg/ml) it was 77.2; in data set [2] (Experiment 7, 5 μg/ml), 42.7; in data set [2] (Experiment 7, 10 μg/ml), 29.6. The “concentration at which inhibitory effects on melanin production are exerted” value in data set [2] (Experiment 3, 1 ppm = 1 μg/ml, 0.0001%) is given as not above 1 ppm. The Cell count in data set [3] (setting [7]) turned out to be 92.2; in data set [3] (setting [8]), 81.9; in data set [3] (setting [9]), 72.4; in data set [3] (Experiment 7, 1 μg/ml, relative to control designated as 100), 102.0; in data set [3] (Experiment 7, 5 μg/ml, relative to control designated as 100), 98.7; in data set [3] (Experiment 7, 10 μg/ml, relative to control designated as 100), 93.8.
Regarding `O=c1ccocc1O` [3H4P, 3-Hydroxy-4-pyrone], the “inhibitory effects on melanin production” value in data set [2] (setting [6]) was “equivalent to those of kojic acid”. Moreover, the Melanin level in data set [2] (Experiment 7, 50 μg/ml) turned out to be 88.8; in data set [2] (Experiment 7, 100 μg/ml), 50.9. The Cell count in data set [3] (mouse, 5 days, 50 μg/ml) came to 89.7; in data set [3] (mouse, 5 days, 100 μg/ml) it was 84.4.
Consider `OC[C@H]1O[C@@H](Oc2ccc(O)cc2)[C@H](O)[C@@H](O)[C@@H]1O` [Arbutin, arbutin], for which the Melanin level came out at 82.4 in data set [2] (Experiment 3, 1 μg/ml); 43.0 in data set [2] (Experiment 3, 5 μg/ml); 23.9 in data set [2] (Experiment 3, 10 μg/ml). In addition, the Cell count was 96.2 in data set [3] (setting [7]), 91.7 in data set [3] (setting [8]) and 86.0 in data set [3] (setting [9]).
With `O=c1cc(CO)occ1O` [Kojic acid, kojic acid], in data set [1] (setting [5]), the “inhibitory effects on tyrosinase activity” value is “strongest inhibitory effects on tyrosinase activity”. For the same molecule, the Melanin level in data set [2] (Experiment 3, 50 μg/ml) came out at 76.5; in data set [2] (Experiment 3, 100 μg/ml), 65.7; in data set [2] (Experiment 7, 50 μg/ml) it was 85.6; in data set [2] (Experiment 7, 100 μg/ml), 65.3. In addition, the Cell count in data set [3] (Experiment 3, 50 μg/ml, relative to control designated as 100) is on record as 80.2; in data set [3] (Experiment 3, 100 μg/ml, relative to control designated as 100) it was 74.1; in data set [3] (Experiment 7, 50 μg/ml, relative to control designated as 100), 80.2; in data set [3] (Experiment 7, 100 μg/ml, relative to control designated as 100), 74.1.
`O=C(O)c1ccc(=O)oc1` [coumalic acid]: in data set [4], the “inhibitory effects on tyrosinase activity” value is reported as “strong inhibitory effects”.
Still for that read-out and setting: then `O=c1cccco1` [coumalin], with “insignificant levels of inhibitory effects”.
